# Experimental data published in patent US8293768B2, “Organic compounds” (Novartis AG, priority 2006, dated 2012).
# Legend:
# [1] = target: T1, stearoyl-CoA desaturase (SCD1) (Mus musculus, UniProt P13516); assay: SCD microsomal assay: release of 3H2O from [9,10-3H]stearoyl-CoA in mouse liver microsomes; assay type: biochemical; conditions: 15 min incubation at 25° C.
# T1 construct: Reactions are started by adding 50 μL of microsomes (1.25 mg/mL); from tissue; host or cells: liver microsomes of male ICR outbred mice on a high-carbohydrate, low fat diet
# T1 sequence (P13516 1-355): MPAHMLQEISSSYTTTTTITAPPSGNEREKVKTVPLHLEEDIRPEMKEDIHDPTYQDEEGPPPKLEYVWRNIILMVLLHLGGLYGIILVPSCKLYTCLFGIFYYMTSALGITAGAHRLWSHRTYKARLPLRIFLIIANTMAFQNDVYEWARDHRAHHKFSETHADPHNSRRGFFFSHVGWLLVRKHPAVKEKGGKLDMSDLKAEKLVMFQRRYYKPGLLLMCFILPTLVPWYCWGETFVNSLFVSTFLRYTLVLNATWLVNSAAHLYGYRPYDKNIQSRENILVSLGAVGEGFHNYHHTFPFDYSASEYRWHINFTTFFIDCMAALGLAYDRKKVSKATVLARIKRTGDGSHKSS
# Source text: The identification of compounds of the invention as SCD inhibitors was readily accomplished using the SCD enzyme and microsomal assay procedure described in Shanklin J. and Summerville C., Proc. Natl. Acad. Sci. USA (1991), Vol. 88, pp. 2510-2514.
# Measuring Stearoyl-CoA Desaturase Inhibition Activity of a Test Compound Using Mouse Liver Microsomes
# The identification of compounds of the invention as SCD inhibitors was readily accomplished using the SCD microsomal assay procedure described in Shanklin J. and Summerville C., Proc. Natl. Acad. Sci. USA (1991), Vol. 88, pp. 2510-2514.
# Male ICR outbread mice, on a high-carbohydrate, low fat diet, under light halothane (15% in mineral oil) anesthesia are sacrificed by exsanguination during periods of high enzyme activity. Livers are immediately rinsed with cold 0.9% NaCl solution, weighed and minced with scissors. All procedures are performed at 4° C. unless specified otherwise. Livers are homogenized in a solution (1/3 w/v) containing 0.25 M sucrose, 62 mM potassium phosphate buffer (pH 7.0), 0.15 M KCl, 15 mM N-acetyleysteine, 5 mM MgCl2, and 0.1 mM EDTA using 4 strokes of a Potter-Elvehjem tissue homogenizer. The homogenate is centrifuged at 10,400×g for 20 min to eliminate mitochondria and cellular debris. The supernatant is filtered through a 3-layer cheesecloth and centrifuged at 105,000×g for 60 min. The microsomal pellet is gently resuspended in the same homogenization solution with a small glass/teflon homogenizer and stored at −70° C. The absence of mitochondrial contamination is enzymatically assessed. The protein concentration is measured using bovine serum albumin as the standard.
# Desaturase activity is measured as the release of ^3H2O from [9,10-^3H]stearoyl-CoA. Reactions per assay point conditions are as follows: 2 μL 1.5 mM stearoyl-CoA, 0.25 μL 1 mCi/mL ^3H stearoyl CoA, 10 μL 20 mM NADH, 36.75 μL 0.1 M PK buffer (K2HPO4/NaH2PO4, pH 7.2). The test compound or control solution is added in a 1 μL volume. Reactions are started by adding 50 μL of microsomes (1.25 mg/mL). The plates are mixed and after 15 min incubation on a heating block (25° C.), the reactions are stopped by the addition of 10 μL 60% PCA. An aliquot of 100 μL is then transferred to a filter plate pretreated with charcoal and the plate centrifuged at 4000 rpm for 1 minute. The flow through containing the ^3H2O released by the SCD1 desaturation reaction is added to scintillation fluid and the radioactivity measured in a Packard TopCount. The data is analysed to identify the IC50 for test compounds and reference compounds. […] The activity was defined in terms of % SCD enzyme activity remaining at the desired concentration of the test compound or as the IC50 concentration. The IC50 (affinity) of the example compounds toward the stearoyl-CoA desaturase is comprised between around […] and 0.0001 μM or between around 5 μM and 0.0001 μM or between around 1 μM and 0.0001 μM.
IC50 [1] [nM],melting point,Structure (SMILES)
577,255 to 256 °C,"Cc1nc(-n2cnn(CC(=O)Nc3ccc(Cl)cc3)c2=O)sc1C(=O)NCc1cccnc1 [Example 19.10, 2-(1-(2-(4-chlorophenylamino)-2-oxoethyl)-5-oxo-1H-1,2,4-triazol-4(5H)-yl)-4-methyl-N-(pyridin-3-ylmethyl)thiazole-5-carboxamide]"
27,–,"Cc1cc(N2CCN(Cc3ccc(F)cc3)C2=O)sc1C(=O)NC1Cc2ccccc2C1 [Example 55.8, N-(2,3-dihydro-1H-inden-2-yl)-5-(3-(4-fluorobenzyl)-2-oxoimidazolidin-1-yl)-3-methylthiophene-2-carboxamide]"
12,163 to 164 °C,"Cc1nc(-n2ccn(Cc3ccc(C(F)(F)F)cc3)c2=O)sc1C(=O)NCc1cccnc1 [Example 17.3, 4-methyl-2-(2-oxo-3-(4-(trifluoromethyl)benzyl)-2,3-dihydro-1H-imidazol-1-yl)-N-(pyridin-3-ylmethyl)thiazole-5-carboxamide]"
428,–,"Cc1cc(N2CCN(Cc3ccc(F)cc3)C2=O)sc1-c1nc(Cc2ccccc2)c[nH]1 [Example 60, 1-(5-(4-benzyl-1H-imidazol-2-yl)-4-methylthiophen-2-yl)-3-(4-fluorobenzyl)imidazolidin-2-one]"
–,119 to 120 °C,"Cc1cc(N2CCN(Cc3ccc(F)cc3)C2=O)sc1C(=O)NCc1cccnc1 [Example 15.2, 5-(3-(4-fluorobenzyl)-2-oxoimidazolidin-1-yl)-3-methyl-N-(pyridin-3-ylmethyl)thiophene-2-carboxamide]"
–,49 to 51 °C,"COC(=O)c1cccc(CN2CCN(c3nc(C)c(C(=O)NCc4ccccc4)s3)C2=O)c1 [Example 23.9, methyl 3-((3-(5-(benzylcarbamoyl)-4-methylthiazol-2-yl)-2-oxoimidazolidin-1-yl)methyl)benzoate]"
–,205 to 208 °C,"COC(=O)c1cnc(N2CCNC2=O)s1 [Example 3.1, methyl 2-(2-oxoimidazolidin-1-yl)thiazole-5-carboxylate]"
–,174 to 176 °C,"Cc1cc(N2CCN(CC(=O)c3ccccc3)C2=O)sc1C(=O)NCc1cccnc1 [Example 55.1, 3-methyl-5-(2-oxo-3-(2-oxo-2-phenylethyl)imidazolidin-1-yl)-N-(pyridin-3-ylmethyl)thiophene-2-carboxamide]"
–,149 to 150 °C,"Cc1nc(-n2cnn(CCOC(=O)NCc3ccc(F)cc3)c2=O)sc1C(=O)NCc1cccnc1 [Example 48, 2-(4-(4-methyl-5-(pyridin-3-ylmethylcarbamoyl)thiazol-2-yl)-5-oxo-4,5-dihydro-1H-1,2,4-triazol-1-yl)ethyl 4-fluorobenzylcarbamate]"
–,95 to 97 °C,"Cc1cc(N2CCN(CCc3ccccc3)C2=O)sc1C(=O)NCc1cccnc1 [Example 15.4, 3-methyl-5-(2-oxo-3-phenethylimidazolidin-1-yl)-N-(pyridin-3-ylmethyl)thiophene-2-carboxamide]"
495,–,"Cc1nc(N2CCN(CC3CCCCO3)C2=O)sc1C(=O)NCc1ccccc1 (stereo not drawn) [Example 23.6, N-benzyl-4-methyl-2-(2-oxo-3-((tetrahydro-2H-pyran-2-yl)methyl)imidazolidin-1-yl)thiazole-5-carboxamide]"
–,120 to 123 °C,"Cc1nc(N2CCN(Cc3cccc(C(=O)O)c3)C2=O)sc1C(=O)NCc1ccccc1 [Example 25, 3-((3-(5-(benzylcarbamoyl)-4-methylthiazol-2-yl)-2-oxoimidazolidin-1-yl)methyl)benzoic acid]"
–,188 to 189 °C,"Cc1cnc(CNC(=O)c2sc(-n3cnn(Cc4ccc(F)cc4)c3=O)nc2C)cn1 [Example 21.15, 2-(1-(4-fluorobenzyl)-5-oxo-1H-1,2,4-triazol-4(5H)-yl)-4-methyl-N-((5-methylpyrazin-2-yl)methyl)thiazole-5-carboxamide]"
–,142 to 144 °C,"Cc1nc(N2CCN(Cc3ccccc3)C2=N)sc1C(=O)NCc1ccc(F)cc1 [Example 27.4, 2-(3-benzyl-2-iminoimidazolidin-1-yl)-N-(4-fluorobenzyl)-4-methylthiazole-5-carboxamide]"
–,188 °C (dec.),"Cc1cc(N2CCN(Cc3ccc(C(N)=O)cc3)C2=O)sc1C(=O)NCc1cccnc1 [Example 55.2, 5-(3-(4-carbamoylbenzyl)-2-oxoimidazolidin-1-yl)-3-methyl-N-(pyridin-3-ylmethyl)thiophene-2-carboxamide]"
–,178 to 179 °C,"Cc1nc(N2CCN(Cc3ccc(Cl)cc3)C2=O)sc1C(=O)NCc1cccnc1 [Example 9.28, 2-(3-(4-chlorobenzyl)-2-oxoimidazolidin-1-yl)-4-methyl-N-(pyridin-3-ylmethyl)thiazole-5-carboxamide]"
–,153 to 154 °C,"Cc1nc(N2CCN(Cc3ccc(C(F)(F)F)cc3)C2=O)sc1CO [Example 41, 1-(5-(hydroxymethyl)-4-methylthiazol-2-yl)-3-(4-(trifluoromethyl)benzyl)imidazolidin-2-one]"
–,190 to 192 °C,"O=C(NCc1cccnc1)c1cnc(N2CCN(CC3CC3)C2=O)s1 [Example 26, 2-(3-(cyclopropylmethyl)-2-oxoimidazolidin-1-yl)-N-(pyridin-3-ylmethyl)thiazole-5-carboxamide]"
–,140 to 142 °C,"Cc1nc(N2CCN(Cc3ccccc3)C2=N)sc1C(=O)NCc1ccc(F)c(F)c1 [Example 27.5, 2-(3-benzyl-2-iminoimidazolidin-1-yl)-N-(3,4-difluorobenzyl)-4-methylthiazole-5-carboxamide]"
–,142 to 143 °C,"Cc1nc(N2CCN(CC3CC3)C2=O)sc1C(=O)NCc1ccccc1 [Example 9.14, N-benzyl-2-(3-(cyclopropylmethyl)-2-oxoimidazolidin-1-yl)-4-methylthiazole-5-carboxamide]"
–,175 to 176 °C,"Cc1nc(N2CCN(Cc3ccc(F)cc3)C2=O)sc1C(=O)NCc1ccncn1 [Example 32.14, 2-(3-(4-fluorobenzyl)-2-oxoimidazolidin-1-yl)-4-methyl-N-(pyrimidin-4-ylmethyl)thiazole-5-carboxamide]"
–,130 to 133 °C,"COC(=O)c1ccccc1CN1CCN(c2nc(C)c(C(=O)NCc3ccccc3)s2)C1=O [Example 23.10, methyl 2-((3-(5-(benzylcarbamoyl)-4-methylthiazol-2-yl)-2-oxoimidazolidin-1-yl)methyl)benzoate]"
–,174 to 175 °C,"Cc1nc(N2CCN(CC3CCCCO3)C2=O)sc1C(=O)NCc1cccnc1 (stereo not drawn) [Example 9.36, 4-methyl-2-(2-oxo-3-((tetrahydro-2H-pyran-2-yl)methyl)imidazolidin-1-yl)-N-(pyridin-3-ylmethyl)thiazole-5-carboxamide]"
–,238 to 239 °C,"Cc1cc(-c2sc(N3CCN(Cc4ccc(C(F)(F)F)cc4)C3=O)nc2C)n[nH]1 [Example 38.2, 1-(4-methyl-5-(5-methyl-1H-pyrazol-3-yl)thiazol-2-yl)-3-(4-(trifluoromethyl)benzyl)imidazolidin-2-one]"
–,148 to 150 °C,"Cc1nc(CNC(=O)c2sc(-n3cnn(Cc4ccc(F)cc4)c3=O)cc2C)cs1 [Example 31.8, 5-(1-(4-fluorobenzyl)-5-oxo-1H-1,2,4-triazol-4(5H)-yl)-3-methyl-N-((2-methylthiazol-4-yl)methyl)thiophene-2-carboxamide]"
